Results published in patent US9109041B2, “Analog compounds of analgesic peptides derived from the venom of crotalus durissus terrificus snakes, their uses, compositions, methods of preparation and purification” (priority 2004, dated 2015).

How the values were obtained:
[1] = test system: hyperalgesia induced by the Walker 256 tumor; test: hyperalgesia induced by the Walker 256 tumor (cancer pain); assay type: in vivo, rat
Text: (§1) The Walker 256 tumor cells were kindly provided by Prof. Dr. Rui Curi, of the Physiology and Biophysics Department of the Biomedical Science Institute of the University of São Paulo. The tumor-bearing animal was sacrificed and the tumoral tissue was removed, placed on a Petri dish containing 0.9% saline. Then, the tumor was cut in smaller parts, and transferred into a beaker containing saline. The material was triturated with a fine-cut, until the tumor is totally fragmented. Then, this material was filtered in gauze and the liquid collected in a beaker. All procedures were performed on ice. The material of the beaker was transferred to 50 ml plastic tubes and centrifuged at 4° C., for 10 minutes, at 1200 rpm. After centrifugation, the supernatant was rejected and the precipitate resuspended in saline 0.9%. For cell counts, the suspension of cells was diluted (1:100) in saline. An aliquot (200 μl) was removed and placed in a test tube containing 200 μl of 1% Trypan blue. The cell number was determined in optical microscope using Neubauer's chamber. The cellular viability was determined considering viable the light-refracting cells.
(§2) After determining the number of cells, 1 ml of the suspension, containing 1×10^7 cells, was injected by intraperitoneal route, on the right side of the rats to obtain liquid tumor (ascites).
(§3) Five days after injection, the rats with ascites were sacrificed and the ascetic fluid collected from the peritoneal cavity and placed in a test tube containing EDTA. The liquid was diluted 100 times with phosphate-buffered saline (PBS), pH 7.4. The cell count was done after dilution with Trypan blue, as described above. Tumor cell count was ascertained to 1×10^6 cells in 100 μl, by dilution with PBS. This number of cells was determined in preliminary tests for induction of cancer pain in rats. In this final cell number adjustment, the volume of antibiotic (Benzetacil®) added to the suspension (150,000 units of antibiotic/10 ml of suspension), was taken into consideration. The antibiotic was used in order to avoid microbial contamination. The cells were injected by intraplantar route into one of the rat hind paws. Control animals were injected with PBS into the contralateral paw, in the same experimental conditions.
(§4) Hyperalgesia, allodynia and spontaneous pain were determined before (BM-basal measurement) and 5 days after tumor cell injection, before (IM-initial measurement) and 2 hours after (FM-Final measurement) peptide administration.
(§5) The results were analyzed comparing the mean values of the basal and initial measurements, or of the initial and final measurements or, when determined, by comparing the mean values obtained in the different experimental groups (Tables 17, 18, 19).
(§6) For this purpose, the animals were treated with CTOP, a specific μ receptor antagonist (20 μg/paw), nor-BNI, a specific κ receptor antagonist (50 μg/paw) or with ICI 174,864, a specific δ receptor antagonist (10 μg/paw). The antagonists were injected by intraplantar route. The peptide was administered in the dose of 6 μg/kg, orally, immediately before the injection of the opioid antagonists. The results were analyzed comparing the mean values of the basal and initial measurements, or of the initial and final measurements or, when determined, by comparing the mean values obtained in the different experimental groups ( Table 20).

[2] = test system: allodynia induced by the Walker 256 tumor; test: allodynia induced by the Walker 256 tumor (cancer pain); assay type: in vivo, rat
Text: as §1, §2, §3, §4, §5, §6

[3] = test system: carrageenin-induced hyperalgesia; test: rat paw pressure test, carrageenin-induced hyperalgesia; assay type: in vivo
Experimental: The antinociceptive effect of the synthetic peptide was evaluated in the inflammatory hyperalgesia induced by carrageenin. […] Saline, administered by the same route was used as control.
As determined in the PGE2 model, the participation of opioid receptors in the antinociceptive effect of the peptide SEQ ID NO: 2 in the carrageenin-induced hyperalgesia (Table 10) was investigated. Therefore, the animals were treated with CTOP, a specific μ receptor antagonist (20 μg/paw), nor-BNI, a specific κ receptor antagonist (50 μg/paw) or with ICI 174.864, a specific δ receptor antagonist (10 μg/paw), injected by i.pl. route concomitantly to carrageenin. Peptide was administered in the dose of 1 μg/kg, orally, immediately before carrageenin.

[4] = test system: prostaglandin E2-induced hyperalgesia; test: rat paw pressure test, prostaglandin E2-induced hyperalgesia; settings: for pain threshold, FM (g) ± S.E.M: 3 h after PGE2 100 ng/paw i.pl.; for pain threshold, IM (g) ± S.E.M.: before PGE2
[5] = 6 μg/kg p.o. + CTOP 20 μg/paw i.pl., 5th day, 2 hours after peptide
[6] = 6 μg/kg p.o. + CTOP 20 μg/paw i.pl., 5th day, before peptide
[7] = 6 μg/kg p.o. + CTOP 20 μg/paw i.pl., before injection of the tumor
[8] = 6 μg/kg p.o. + ICI 174,864 10 μg/paw i.pl., 5th day, 2 hours after peptide
[9] = 6 μg/kg p.o. + ICI 174,864 10 μg/paw i.pl., 5th day, before peptide
[10] = 6 μg/kg p.o. + ICI 174,864 10 μg/paw i.pl., before injection of the tumor
[11] = 6 μg/kg p.o. + nor-BNI 50 μg/paw i.pl., 5th day, 2 hours after peptide
[12] = 6 μg/kg p.o. + nor-BNI 50 μg/paw i.pl., 5th day, before peptide
[13] = 6 μg/kg p.o. + nor-BNI 50 μg/paw i.pl., before injection of the tumor
[14] = peptide 6 μg/kg p.o., CTOP 20 μg/paw i.pl.
[15] = peptide 6 μg/kg p.o., ICI 174,864 10 μg/paw i.pl.
[16] = peptide 6 μg/kg p.o., nor-BNI 50 μg/paw i.pl.

Xaa-Phe-Ser-Pro-Glu-Asn-Cys-Gln-Gly-Glu-Ser-Gln-Pro-Cys [SEQ ID NO: 2]
pain threshold, FM [1, 5]: 72 ± 2.81 g | pain threshold, IM [1, 6]: 37 ± 2.81 g | pain threshold, BM [1, 7]: 70 ± 1.29 g | pain threshold, FM [1, 8]: 52 ± 1.22 g | pain threshold, IM [1, 9]: 33 ± 3.39 g | pain threshold, BM [1, 10]: 67 ± 1.22 g | pain threshold, FM [1, 11]: 32 ± 1.05 g | pain threshold, IM [1, 12]: 32 ± 2.14 g | pain threshold, BM [1, 13]: 69 ± 1.53 g | pain threshold, FM ([1]; 6 μg/kg p.o., 5th day after tumor implantation, 2 hours after peptide (Table 17)): 76 ± 2.29 g | pain threshold, IM ([1]; 6 μg/kg p.o., 5th day after tumor implantation, before peptide (Table 17)): 27 ± 1.01 g | pain threshold, FM ([1]; 6 μg/kg p.o., 5th day, 2 hours after peptide (Table 20)): 75 ± 2.88 g | pain threshold, IM ([1]; 6 μg/kg p.o., 5th day, before peptide (Table 20)): 36 ± 2.39 g | pain threshold, BM ([1]; 6 μg/kg p.o., before injection of the tumor (Table 17)): 69 ± 1.30 g | pain threshold, BM ([1]; 6 μg/kg p.o., before injection of the tumor (Table 20)): 71 ± 1.25 g | effect of the mu opioid receptor antagonist on the anti-hyperalgesic effect of the peptide [1, 14]: did not alter | effect of the delta opioid receptor antagonist on the anti-hyperalgesic effect of the peptide [1, 15]: partially inhibited | effect of the kappa opioid receptor antagonist on the anti-hyperalgesic effect of the peptide [1, 16]: blocked | paw withdrawal threshold (allodynia), FM [2, 5]: 4.98 ± 0.03 log 10 (mg × 10) | paw withdrawal threshold (allodynia), IM [2, 6]: 4.41 ± 0.00 log 10 (mg × 10) | paw withdrawal threshold (allodynia), BM [2, 7]: 5.03 ± 0.02 log 10 (mg × 10) | paw withdrawal threshold (allodynia), FM [2, 8]: 4.56 ± 0.03 log 10 (mg × 10) | paw withdrawal threshold (allodynia), IM [2, 9]: 4.41 ± 0.00 log 10 (mg × 10) | paw withdrawal threshold (allodynia), BM [2, 10]: 4.99 ± 0.02 log 10 (mg × 10) | paw withdrawal threshold (allodynia), FM [2, 11]: 4.41 ± 0.00 log 10 (mg × 10) | paw withdrawal threshold (allodynia), IM [2, 12]: 4.41 ± 0.00 log 10 (mg × 10) | paw withdrawal threshold (allodynia), BM [2, 13]: 4.97 ± 0.00 log 10 (mg × 10) | paw withdrawal threshold (allodynia), FM ([2]; 6 μg/kg p.o., 5th day after tumor implantation, 2 hours after peptide (Table 18)): 4.97 ± 0.00 log 10 (mg × 10) | paw withdrawal threshold (allodynia), IM ([2]; 6 μg/kg p.o., 5th day after tumor implantation, before peptide (Table 18)): 4.41 ± 0.00 log 10 (mg × 10) | paw withdrawal threshold (allodynia), FM ([2]; 6 μg/kg p.o., 5th day, 2 hours after peptide (Table 21)): 4.97 ± 0.00 log 10 (mg × 10) | paw withdrawal threshold (allodynia), IM ([2]; 6 μg/kg p.o., 5th day, before peptide (Table 21)): 4.41 ± 0.00 log 10 (mg × 10) | paw withdrawal threshold (allodynia), BM ([2]; 6 μg/kg p.o., before injection of the tumor (Table 18)): 4.97 ± 0.00 log 10 (mg × 10) | paw withdrawal threshold (allodynia), BM ([2]; 6 μg/kg p.o., before injection of the tumor (Table 21)): 4.97 ± 0.00 log 10 (mg × 10) | effect of the mu opioid receptor antagonist on the anti-allodynic effect of the peptide [2, 14]: did not alter | effect of the delta opioid receptor antagonist on the anti-allodynic effect of the peptide [2, 15]: partially inhibited | effect of the kappa opioid receptor antagonist on the anti-allodynic effect of the peptide [2, 16]: blocked | pain threshold, FM (g) ± S.E.M ([3]; 1 μg/kg p.o. + CTOP 20 μg/paw i.pl. with carrageenin, after carrageenin): 126 ± 2.92 g | pain threshold, IM (g) ± S.E.M. ([3]; 1 μg/kg p.o. + CTOP 20 μg/paw i.pl., before carrageenin): 76 ± 1.87 g | pain threshold, FM (g) ± S.E.M ([3]; 1 μg/kg p.o. + ICI174,864 10 μg/paw i.pl. with carrageenin, after carrageenin): 128 ± 2.00 g | pain threshold, IM (g) ± S.E.M. ([3]; 1 μg/kg p.o. + ICI174,864 10 μg/paw i.pl., before carrageenin): 77 ± 1.22 g | pain threshold, FM (g) ± S.E.M ([3]; 1 μg/kg p.o. + nor-BNI 50 μg/paw i.pl. with carrageenin, after carrageenin): 56 ± 1.00 g | pain threshold, IM (g) ± S.E.M. ([3]; 1 μg/kg p.o. + nor-BNI 50 μg/paw i.pl., before carrageenin): 78 ± 2.00 g | pain threshold, FM (g) ± S.E.M ([3]; 1 μg/kg p.o., 3 h after carrageenin 200 μg/paw (Table 9)): 116 ± 1.87 g | pain threshold, FM (g) ± S.E.M ([3]; 1 μg/kg p.o., after carrageenin (Table 10)): 129 ± 1.87 g | pain threshold, IM (g) ± S.E.M. ([3]; 1 μg/kg p.o., before carrageenin (Table 9)): 77 ± 2.00 g | pain threshold, IM (g) ± S.E.M. ([3]; 1 μg/kg p.o., before carrageenin (Table 10)): 77 ± 1.22 g | opioid receptor antagonist interfering with the antinociceptive effect ([3]; peptide 1 μg/kg p.o., mu, kappa, delta antagonists i.pl.): only kappa opioid receptor antagonist was able to interfere | pain threshold, FM (g) ± S.E.M ([4]; 0.00000256 μg/paw i.pl.): 57 ± 5.34 g | pain threshold, IM (g) ± S.E.M. ([4]; 0.00000256 μg/paw i.pl.): 72 ± 1.12 g | pain threshold, FM (g) ± S.E.M ([4]; 0.0000128 μg/kg i.v.): 54 ± 3.04 g | pain threshold, IM (g) ± S.E.M. ([4]; 0.0000128 μg/kg i.v.): 70 ± 2.05 g | pain threshold, FM (g) ± S.E.M ([4]; 0.0000128 μg/paw i.pl.): 62 ± 3.22 g | pain threshold, IM (g) ± S.E.M. ([4]; 0.0000128 μg/paw i.pl.): 71 ± 2.39 g | pain threshold, FM (g) ± S.E.M ([4]; 0.000064 μg/kg i.v.): 54 ± 2.39 g | pain threshold, IM (g) ± S.E.M. ([4]; 0.000064 μg/kg i.v.): 68 ± 1.44 g | pain threshold, FM (g) ± S.E.M ([4]; 0.00032 μg/kg i.v.): 63 ± 5.16 g
